Laboratory results from patent US8497385B2, “Bryostatin analogues, synthetic methods and uses” (The Board of Trustees of the Leland Stanford Junior …, priority 2007, dated 2013).

Columns and labels:
Type in all cases: cell-based, human
CCRF-CEM = assay: NCI growth inhibition, CCRF-CEM (Leukemia); settings: Leukemia
HL-60(TB) = system: HL-60(TB)
K-562 = assay: NCI growth inhibition, K-562 (Leukemia); settings: K-562, Leukemia
MOLT-4 = assay: NCI growth inhibition, MOLT-4 (Leukemia); settings: MOLT-4, Leukemia
RPMI-8226 = assay: NCI growth inhibition, RPMI-8226 (Leukemia); settings: RPMI-8226, Leukemia
SR = assay: NCI growth inhibition, SR (Leukemia); settings: Leukemia
A549/ATCC = assay: NCI growth inhibition, A549/ATCC (NSC Lung); settings: NSC Lung
EKVX = assay: NCI growth inhibition, EKVX (NSC Lung); settings: NSC Lung
HOP-62 = assay: NCI growth inhibition, HOP-62 (NSC Lung)
HOP-92 = assay: NCI growth inhibition, HOP-92 (NSC Lung); settings: HOP-92, NSC Lung
NCI-H226 = assay: NCI growth inhibition, NCI-H226 (NSC Lung)
NCI-H23 = assay: NCI growth inhibition, NCI-H23 (NSC Lung)
NCI-H322M = assay: NCI growth inhibition, NCI-H322M (NSC Lung); settings: NSC Lung
NCI-H460 = assay: NCI growth inhibition, NCI-H460 (NSC Lung); settings: NCI-H460, NSC Lung
NCI-H522 = assay: NCI growth inhibition, NCI-H522 (NSC Lung)
COLO 205 = assay: NCI growth inhibition, COLO 205 (Colon); settings: COLO 205, Colon
HCC-2998 = assay: NCI growth inhibition, HCC-2998 (Colon); settings: HCC-2998, Colon
HCT-116 = assay: NCI growth inhibition, HCT-116 (Colon); settings: HCT-116, Colon
HCT-15 = assay: NCI growth inhibition, HCT-15 (Colon)
HT29 = assay: NCI growth inhibition, HT29 (Colon); settings: HT29, Colon
KM12 = assay: NCI growth inhibition, KM12 (Colon); settings: KM12, Colon
SW-620 = assay: NCI growth inhibition, SW-620 (Colon); settings: SW-620, Colon
SF-268 = assay: NCI growth inhibition, SF-268 (CNS); settings: SF-268, CNS
SF-295 = assay: NCI growth inhibition, SF-295 (CNS); settings: SF-295, CNS
SF-539 = assay: NCI growth inhibition, SF-539 (CNS); settings: SF-539, CNS
SNB-19 = assay: NCI growth inhibition, SNB-19 (CNS); settings: SNB-19, CNS
SNB-75 = assay: NCI growth inhibition, SNB-75 (CNS); settings: SNB-75, CNS
U251 = assay: NCI growth inhibition, U251 (CNS); settings: U251, CNS
PC-3 = assay: NCI growth inhibition, PC-3 (Prostate); settings: PC-3, Prostate
DU-145 = assay: NCI growth inhibition, DU-145 (Prostate); settings: DU-145, Prostate
LOX IMVI = assay: NCI growth inhibition, LOX IMVI (Melanoma); settings: Melanoma
MALME-3M = assay: NCI growth inhibition, MALME-3M (Melanoma)
MI4 = assay: NCI growth inhibition, MI4 (Melanoma); settings: MI4, Melanoma
SK-MEL-2 = assay: NCI growth inhibition, SK-MEL-2 (Melanoma); settings: SK-MEL-2, Melanoma
SK-MEL-28 = assay: NCI growth inhibition, SK-MEL-28 (Melanoma); settings: SK-MEL-28, Melanoma
SK-MEL-5 = assay: NCI growth inhibition, SK-MEL-5 (Melanoma); settings: SK-MEL-5, Melanoma
UACC-257 = assay: NCI growth inhibition, UACC-257 (Melanoma); settings: UACC-257, Melanoma
UACC-62 = assay: NCI growth inhibition, UACC-62 (Melanoma); settings: UACC-62, Melanoma
IGROVI = assay: NCI growth inhibition, IGROVI (Ovarian); settings: Ovarian
OVCAR-3 = assay: NCI growth inhibition, OVCAR-3 (Ovarian); settings: OVCAR-3, Ovarian
OVCAR-4 = assay: NCI growth inhibition, OVCAR-4 (Ovarian); settings: OVCAR-4, Ovarian
OVCAR-5 = assay: NCI growth inhibition, OVCAR-5 (Ovarian); settings: OVCAR-5, Ovarian
OVCAR-8 = assay: NCI growth inhibition, OVCAR-8 (Ovarian); settings: OVCAR-8, Ovarian
SK-OV-3 = assay: NCI growth inhibition, SK-OV-3 (Ovarian); settings: SK-OV-3, Ovarian
786-0 = assay: NCI growth inhibition, 786-0 (Renal); settings: 786-0, Renal
A498 = assay: NCI growth inhibition, A498 (Renal); settings: A498, Renal
ACHN = assay: NCI growth inhibition, ACHN (Renal); settings: Renal
CAKI-1 = assay: NCI growth inhibition, CAKI-1 (Renal); settings: CAKI-1, Renal
RXF-393 = assay: NCI growth inhibition, RXF-393 (Renal)
SN12C = assay: NCI growth inhibition, SN12C (Renal); settings: Renal
TK-10 = assay: NCI growth inhibition, TK-10 (Renal); settings: TK-10, Renal
UO-31 = assay: NCI growth inhibition, UO-31 (Renal); settings: UO-31, Renal
MCF7 = assay: NCI growth inhibition, MCF7 (Breast); settings: MCF7, Breast
NCI/ADR-RES = assay: NCI growth inhibition, NCI/ADR-RES (Breast)
MDA-MB-231/ATCC = assay: NCI growth inhibition, MDA-MB-231/ATCC (Breast); settings: Breast
MDA-MB-435 = assay: NCI growth inhibition, MDA-MB-435 (Breast); settings: MDA-MB-435, Breast
MDA-N = assay: NCI growth inhibition, MDA-N (Breast)
BT-549 = assay: NCI growth inhibition, BT-549 (Breast); settings: BT-549, Breast
T-47D = assay: NCI growth inhibition, T-47D (Breast); settings: Breast
HS 578T = assay: NCI growth inhibition, HS 578T (Breast); settings: Breast

Measured: GI50

CCC/C=C/C=C/C(=O)O[C@H]1/C(=C/C(=O)OC)C[C@H]2C[C@H]([C@@H](C)O)OC(=O)C[C@H](O)C[C@@H]3C[C@H](OC(C)=O)C(C)(C)[C@](O)(C[C@@H]4C/C(=C/C(=O)OC)C[C@H](/C=C/C(C)(C)[C@]1(O)O2)O4)O3 [Bryo-1, Bryostatin-1, reference compound]
−5.2 log of molar concentration: HS 578T
−5.20 log of molar concentration: A549/ATCC | KM12 | SF-295 | MALME-3M | SK-MEL-2 | 786-0 | MCF7 | MDA-MB-231/ATCC | T-47D
−5.60 log of molar concentration: NCI-H460 | UO-31
−5.40 log of molar concentration: K-562 | COLO 205 | CAKI-1
−5.30 log of molar concentration: CCRF-CEM | EKVX | HOP-92 | HCC-2998 | HCT-116 | HT29 | PC-3 | UACC-62 | IGROVI | RXF-393
−5.70 log of molar concentration: HL-60(TB) | SK-MEL-5
−5.10 log of molar concentration: SF-268 | U251 | LOX IMVI | SK-MEL-28 | UACC-257 | OVCAR-3 | OVCAR-8 | SK-OV-3 | SN12C | MDA-MB-435 | MDA-N | BT-549
−5.50 log of molar concentration: MOLT-4 | SW-620 | SNB-75 | OVCAR-4 | ACHN
−6.00 log of molar concentration: NCI-H322M
>−5 log of molar concentration: all other assays above
